Test results: patent US20250177558A1, “Functionalized Nanoclusters and Their Use in Treating Bacterial Infections” (priority 2022, published 2025)
Entries after “also recorded” stand apart in the source; their conditions may differ. Read-outs that look alike come from different tables or passages of the source.

Assays:
[1] = tested on: Ofloxacin-induced persister cells of P. aeruginosa (PA14); experiment: Bactericidal activity against persister cells; type: cell-based, Pseudomonas aeruginosa; details: ATP up to 10 mM, persister cells 10^8 CFU/ml
Protocol: Therefore, the 48-h-old-stationary phase was treated with Ofloxacin for 24 h to eradicate non-persister cells (FIG. 5A). Ofloxacin was used at 415 µM, corresponding to 30-fold the MIC for the PAO1 wild-type strain. The surviving persister cells were concentrated and redispersed in phosphate-buffered saline (PBS) to prevent persister cells from awakening from their metabolically repressed state.
Persister cells of the P. aeruginosa (PA14) were isolated by treating 250 ml of stationary phase cultures with Ofloxacin (415 µM final concentration). After 24 h treatment, the samples were washed with PBS, and then persister cells were concentred in 10 ml of PBS. The number of persister cells was estimated by serially diluting to determine the colony-forming unit per millilitre (CFU/ml).
All the bactericidal tests were performed on PBS without a carbon source to prevent persister cells from waking up from their low metabolic activity. Ofloxacin-induced persister cells were challenged with antimicrobial agents at the concentrations listed in the text. After the survival bacteria were washed 3× with PBS, the pellet was resuspended in 100 μL of PBS and then spread on an LB plate. The plate was incubated for 72 h at 37° C. before assessing growth.

P. aeruginosa (PAO1) = type: cell-based, Pseudomonas aeruginosa; details: 21 passages in sub-MIC dosing; MIC at passage n/initial MIC
Protocol: The fold change in minimum inhibitory concentration (MIC) was measured as the ratio between the MIC at passage n/initial MIC.
To test this idea, we repeated our serial passaging study with two biologically independent cultures of PAO1.
Serial passage MICs were performed in 96-well microtiter panels. First, an aliquot of the well with the highest concentration permitting growth was taken and back diluted ( 1/100) in new media from inoculated microtiter panels. […] Panels were incubated according to CLSI guidelines, MICs were recorded, and the next inoculum was prepared from the well containing the highest drug concentration that identically allowed growth as described above. Twenty-one repeat passages were performed.

PAO1Cip21 = experiment: Disc diffusion susceptibility (cross-resistance); type: cell-based, Pseudomonas aeruginosa; details: isolate after 21 passages in subinhibitory Ciprofloxacin; 5 μg discs
Protocol: In brief, glycerol stocks of each bacteria were streaked on LB plates and grown overnight at 37° C. An inoculum was prepared by diluting several individual colonies in PBS with a 0.5 McFarland Standard turbidity. The inoculum was then spread with sterile cotton swabs on Mueller Hinton agar plates supplemented with 5% sheep blood. Discs containing 5 μg of antipseudomonal drugs were dispensed on the surface of the plate. After 24 h incubation at 37° C., the inhibition zone was measured using a digital calliper.

[2] = tested on: stationary phase culture of P. aeruginosa (PA14); experiment: Intracellular reactive oxygen species (DCFH-DA); type: cell-based, Pseudomonas aeruginosa; details: relative to PBS-treated group
Protocol: FIGS. 12A-12B. […] (FIG. 12A) Schematic showing how intracellular ROS was determined using the fluorescent probe 2′,7′-dichlorofluorescein diacetate (DCFH-DA).
Cumulatively, the data in this section support that after transiting through OM, AuNC@ATP leads to the fusion of the inner leaflet of OM with the outer leaflet of the cytoplasmic membrane, which leads to bacteria death without cell lysis.
DCFH-DA (2′,7′-dichlorofluorescein diacetate) dye was applied to test the intracellular ROS concentration, which could be cleaved by the intracellular non-specific esterase into the DCFH. DCFH, in the presence of ROS, would be further oxidized into fluorescent DCF (2′,7′-dichlorofluorescein). DCFH-DA in DMSO (10 μM) was added to the treated bacterial solution and further incubated at 37° C., 200 rpm for 15 min. After that, the bacterial cells were centrifuged at 8000 g for 5 min, washed three times with PBS, and resuspended in ultrapure water to the original volume (1 mL). The microplate reader was used to measure the concentration of the produced DCF at the excitation/emission wavelength of 488/525 nm. In this experiment, the fluorescence intensity of DCF directly reflects the amount of ROS generation. […] Finally, the relative ROS production level was calculated by normalizing the ROS level from the treated groups with the production level of the PBS-treated group.

[3] = tested on: Acinetobacter baumannii (A. baumannii); details: ref [69], cited from earlier work
[4] = single injection, mice, ref [79], cited from earlier work
[5] = tested on: stationary phase culture of gram-negative bacteria; details: conventional antibiotics, refs [54-56]; cited from earlier work

In the case of `Nc1ncnc2c1ncn2[C@@H]1O[C@H](COP(=O)(O)OP(=O)(O)OP(=O)(O)O)[C@@H](O)[C@H]1O` [ATP, adenosine triphosphate], the “eradication of persister cells by ATP ligand alone” value [1] is reported as “No eradication was observed; also recorded: did not show bactericidal activity”.
In the case of `O=C(O)c1cn(C2CC2)c2cc(N3CCNCC3)c(F)cc2c1=O` [Ciprofloxacin], the “resistance development: increase in MIC” value (P. aeruginosa (PAO1)) is reported as “more than 250 fold”.
For `CC(C)(O/N=C(\C(=O)N[C@@H]1C(=O)N2C(C(=O)[O-])=C(C[n+]3ccccc3)CS[C@H]12)c1csc(N)n1)C(=O)O` [Ceftazidime], the “inhibition zone diameter compared to the ancestor PAO1” value (PAO1Cip21) was “decrease in inhibition zone diameter”.
In the case of `C[C@@H](O)[C@H]1C(=O)N2C(C(=O)O)=C(S[C@@H]3CN[C@H](C(=O)N(C)C)C3)[C@H](C)[C@H]12` [Meropenem], the “inhibition zone diameter compared to the ancestor PAO1” value (PAO1Cip21) is reported as “decrease in inhibition zone diameter”.
With `CC1COc2c(N3CCN(C)CC3)c(F)cc3c(=O)c(C(=O)O)cn1c23` (centres unmarked) [Ofloxacin] the ROS production [2] was 1.2 fold-change and the “resistance development: increase in MIC” value (P. aeruginosa (PAO1)) was > 1500 fold.
For `C[C@H]1[C@H](NC(=O)/C(=N\OC(C)(C)C(=O)O)c2csc(N)n2)C(=O)N1S(=O)(=O)O` [aztreonam], the “inhibition zone diameter compared to the ancestor PAO1” value (PAO1Cip21) was “decrease in inhibition zone diameter”.
For `Cn1c2cccc(=O)c-2nc2ccccc21` [PYO, pyocyanin], the “increase of persister cells in the presence of PYO” value ([3]; with amikacin) is given as 4 fold and the “increase of persister cells in the presence of PYO” value ([3]; with carbenicillin) is given as 3 fold.
In the case of `NC[C@H]1O[C@H](O[C@H]2[C@H](O)[C@@H](O[C@H]3O[C@H](CO)[C@@H](O)[C@H](N)[C@H]3O)[C@H](N)C[C@@H]2N)[C@H](N)C[C@@H]1O` [Tobramycin], the “inhibition zone diameter compared to the ancestor PAO1” value (PAO1Cip21) is reported as “decrease in inhibition zone diameter” and the “resistance development: increase in MIC” value (P. aeruginosa (PAO1)) is reported as “more than 30 fold”.
For `CO/N=C(\C(=O)N[C@@H]1C(=O)N2C(C(=O)[O-])=C(C[N+]3(C)CCCC3)CS[C@H]12)c1csc(N)n1` [Cefepime], the “inhibition zone diameter compared to the ancestor PAO1” value (PAO1Cip21) was “decrease in inhibition zone diameter”.
For `CC1(C)S[C@@H]2[C@H](NC(=O)C(C(=O)O)c3ccccc3)C(=O)N2[C@H]1C(=O)O` (some centres unmarked) [carbenicillin], the “persister cells formed by A. baumannii in the presence of antibiotic” value [3] is given as 0.02%.
For tobramycin sulphate, the LD50 ([4]; IP) is listed as 262 mg/kg and the LD50 ([4]; IV) is listed as 77 mg/kg.
For `NCC[C@H](O)C(=O)N[C@@H]1C[C@H](N)[C@@H](O[C@H]2O[C@H](CN)[C@@H](O)[C@H](O)[C@H]2O)[C@H](O)[C@H]1O[C@H]1O[C@H](CO)[C@@H](O)[C@H](N)[C@H]1O` [Amikacin], the “inhibition zone diameter compared to the ancestor PAO1” value (PAO1Cip21) is given as “decrease in inhibition zone diameter” and the “persister cells formed by A. baumannii in the presence of antibiotic” value [3] is given as 0.07%.
For Colistin, the “inhibition zone diameter compared to the ancestor PAO1” value (PAO1Cip21) is given as “decrease in inhibition zone diameter” and the cell lysis [5] is given as “cause bacteria cell lysis”.
In the case of Polymyxin-B, the “inhibition zone diameter compared to the ancestor PAO1” value (PAO1Cip21) is reported as “decrease in inhibition zone diameter”.
